Data reported in article PMC5451472, “Novel Locally Active Estrogens Accelerate Cutaneous Wound Healing-Part 2” (Scientific Reports, 2017).
Values belong to the compound of their own block, whether it stands above or below them.

Columns and labels:
ERs = target: T1, ERs (Homo sapiens, UniProt P03372); experiment: ER transactivation assay in ERE-Luc B17 cells (luciferase reporter); type: cell-based; conditions: for EC50: ERE-Luc B17 cells (MCF-7 clone), 24 h, luciferase activity, sigmoidal dose-response, read-out: EC50 (transactivation potency); for fold induction at 10 µM / activity on ERs: ERE-Luc B17 cells; for fold induction at 10 µM: 10^-5 M of compound respect to vehicle
T1 construct: endogenous in cells; host or cells: MCF-7, clone ERE-Luc B17 (only the luciferase reporter is transfected)
T1 sequence (P03372 1-595): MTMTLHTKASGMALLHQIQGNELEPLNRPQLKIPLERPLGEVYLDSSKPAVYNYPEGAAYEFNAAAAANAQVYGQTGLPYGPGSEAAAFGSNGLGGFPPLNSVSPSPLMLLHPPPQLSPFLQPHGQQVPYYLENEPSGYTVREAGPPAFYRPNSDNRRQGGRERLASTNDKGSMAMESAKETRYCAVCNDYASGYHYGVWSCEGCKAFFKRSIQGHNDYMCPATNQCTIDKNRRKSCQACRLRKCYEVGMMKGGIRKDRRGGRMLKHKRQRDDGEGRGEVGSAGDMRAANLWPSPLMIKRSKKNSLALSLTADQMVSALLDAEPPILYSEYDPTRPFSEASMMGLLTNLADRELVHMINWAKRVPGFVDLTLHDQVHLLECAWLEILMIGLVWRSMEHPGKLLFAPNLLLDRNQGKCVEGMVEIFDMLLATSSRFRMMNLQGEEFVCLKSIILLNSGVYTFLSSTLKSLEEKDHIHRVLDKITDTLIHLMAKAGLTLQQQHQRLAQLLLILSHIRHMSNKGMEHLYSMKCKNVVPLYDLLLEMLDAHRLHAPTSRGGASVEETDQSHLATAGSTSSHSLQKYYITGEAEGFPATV
Experimental: The ability of the novel compounds to transcriptionally activate ERs was tested in ERE-Luc B 17 cells, a clone of the breast cancer cell line MCF-7 stably transfected with a reporter constituted by the luciferase gene driven by an estrogen-regulated synthetic promoter previously generated and tested in our laboratories.
Cells were split twice a week by seeding 2 × 10^6 cells in 100 mm diameter Petri (Corning) dishes.
After 24 h cells were rinsed once with PBS before preparing the protein extract for the determination of luciferase content. Each experiment was carried out in duplicate.
Luciferase enzymatic activity was measured in cells or selected tissue homogenates by a luminometer (Glomax™96 microplate luminometer; Promega) using Promega standard luciferin (Beetle Luciferin Potassium Salt) and expressed as Relative Light Units over 10 sec/μg protein (RLU/μg protein). Proteins concentrations were measured by Bradford.
Analysis of transactivation data and calculation of EC50 values were performed by means of sigmoidal dose-response (variable slope) using PRISM5 software (GraphPad Software Inc.).

[1] = system: ER transcriptional activity; experiment: In vivo BLI time course in wounded ovariectomized ERE-Luc mice, compounds s.c. around the wound; set-up: species or system mouse
Experimental: To study the estrogenic and healing properties of the two compounds, we generated a wound in the ERE-Luc mouse model and tested the activity of the two compounds administered s.c. in the area surrounding the wound as described in the methodology section.
Each group was composed of 4 ERE-Luc females’ mice ovariectomized 2 weeks’ prior the experiment to avoid any interference due to endogenous estrogens. Photon emission was measured in the living animals three times: at 0, 3 and 6 h after s.c. injection.
(§1) ERE-Luc and MITO-Luc mice were ovariectomized at two months of age; the experiment was done 2 weeks after surgery to allow the animals to recover and to decrease the levels of circulating estrogens. The animals were fed ad libitum with a special estrogen free diet (AIN 93 M, Mucedola) (Ciana et al. Endocrinology 2005) and housed in individually ventilated plastic cages within a temperature range of 22–25 °C, relative humidity of 50% ± 10% and under an automatic cycle of 12 h light/dark (lights on at 07:00 am). All animal experimentation was carried out in accordance with the ARRIVE and European Guidelines for Animal Care. All animal experiments were approved by the Italian Ministry of Research and University and controlled by a Departmental panel of experts. For the correct dosage of the compounds, the body weight of the animals (on empty stomach, fasted for at least 12–14 hours) was determined immediately before the treatment.
(§2) Ovariectomy was carried out as previously described. Wound healing was done after shaving by VEET depilatory cream a day before the treatment. The 1 cm full-thickness incisional wound was made through the skin and panniculus carnosus muscle of ovariectomized MITO-luc using a surgical scalpel (blade n°10, carbon steel, Swann-Morton Ltd). Round full-thickness wounds were done by cutting out a section of full-thickness skin (around 9 mm in diameter) using fine scissors on the dorsal skin of the isoflurane-anesthetized animal. For in vivo treatment the compounds were administered onto the subcutaneous area surrounding the wound by multiple subcutaneous injection, immediately after the generation of the wound.
For the semi-quantitative analysis of in vivo photon emission, animals were injected i.p. with 80 mg/kg of luciferin (Beetle Luciferin Potassium Salt; Promega, Madison, WI, USA) 15 min prior the imaging session. For the imaging, mice were anaesthetized using isofluorane (Isofluorane-Vet; Merial, Lyon, France) and kept under anesthesia during the 5 minutes of the session carried out with a CCD camera: both ventral and dorsal acquisition (Xenogen IVIS Lumina System; Caliper, PerkinElmer company). Photon emission in selected body areas was measured using the Living Image Software (Caliper, PerkinElmer company). The analysis was done in ventral view: whole body, thymus, hepatic area, abdomen, limbs, vagina and in dorsal view in wound area and expressed as photon/second/cm2/steradiant (p/s/cm2/sr).

ERE-Luc mice = experiment: Uterus weight of ERE-Luc mice; type: in vivo, mouse; conditions: 20 µg/kg s.c., 6 h after treatment
Excerpt: The final study aiming at investigating the systemic effect of the NCE was done by measuring the uterus weight of all treated animal as the golden standard for the quantitative measure of estrogenic compounds.

[2] = system: MITO-Luc mice (reporter of mitosis); experiment: Proliferation in the wound area, in vivo BLI of MITO-Luc mice; set-up: species or system mouse
Excerpt: Wound healing is a dynamic process consisting of four continuous, overlapping, and precisely programmed phases: hemostasis, inflammation, proliferation and tissue growth (proliferation) and remodeling (maturation). The healing effect of estrogens may be exerted at several levels, certainly the ability of the hormone to accelerate macrophage polarization towards the M2-reparative polarization stage plays a relevant role, however estrogens may also facilitate local cell proliferation and the formation of the granulation tissue, epithelialization, and wound contraction.
The experiments were done with the 1e compound as completely deprived of any activity on the uterus (Fig. 6). […] Photon emission was measured in the wound area at the following time: 0, 24, 48 and 72 hours post-treatment.
as §1
as §2, with “For in vivo treatment the compounds were administered onto the subcutaneous area surrounding the wound by multiple subcutaneous injection, immediately after the generation of the wound.” left out
For the semi-quantitative analysis of in vivo photon emission, animals were injected i.p. with 80 mg/kg of luciferin (Beetle Luciferin Potassium Salt; Promega, Madison, WI, USA) 15 min prior the imaging session. […] Photon emission in selected body areas was measured using the Living Image Software (Caliper, PerkinElmer company). The analysis was done in ventral view: whole body, thymus, hepatic area, abdomen, limbs, vagina and in dorsal view in wound area and expressed as photon/second/cm2/steradiant (p/s/cm2/sr).

MITO-Luc mice [3] = experiment: Wound area measurement in MITO-Luc mice; type: in vivo, mouse; conditions: 20 µg/kg s.c., 72 hours after treatment (vehicle 50%)
Experimental: To investigate to which extent the increased proliferation observed after the pharmacological treatments was functional to the healing process, we measured the size of the wound (Fig. 9a).
as §2

MITO-Luc mice [4] = experiment: Macrophage count (Iba1 immunohistochemistry) around the wound site; type: in vivo, mouse; conditions: 20 µg/kg s.c., 72 hours after treatment
Experimental: To better understand whether the healing effect of 1e could be attributed to its anti-inflammatory action, at the end of in vivo imaging (72 hours after treatments) the tissue surrounding the wound was dissected and subjected immunohistochemical analysis using the pan macrophage marker Iba1. […] This observation confirmed that the estrogenic compounds were able to regulate the immune response at local level.
In particular, the criteria for the assignation of granulations value are: 1 = wound bed partially covered with granulation tissue; 2 = thin granulation over the whole wound bed; 3 = thick granulation over the whole wound bed. Evaluation of macrophages was done through a specific antibody and digital image analysis: 4 µm sections from each wound healing sample were immunostained with primary rabbit […] antibody against Iba1 antigen (Wako; #019-19741) to assess the number of macrophages.
The number of positive cells were counted using the ImageJ analysis program (http://rsb.info.nih.gov/ij/) in 400x microscopic fields selected at the periphery of the wound area.

MITO-Luc mice [5] = experiment: Granulation tissue histoscore of round full-thickness wound at day 10; type: in vivo, mouse; conditions: 20 µg/kg s.c., day 10, round wound, scale 1-3 (vehicle 0.3)
Experimental: The measure of photon emission from the wound area was done for several days after the wounding. 3 days after treatment the bioluminescent signal is highest (Fig. 10 Panel a).
as §2
At the time of euthanasia, the wounds with surrounding healthy tissue were excised, distended on a strip of hard paper and fixed in 10% buffered formalin (pH = 6). […] For histopathological examination 4 µm sections were routinely stained with Hematoxylin-Eosin (HE) and evaluated under a light microscope. The degree of re-epithelialization, the type and amount of granulation tissue and inflammation, which are the main features of wound healing, were scored separately. […]

[6] = set-up: method as in PMID 19718805; conditions: cited from earlier work

EC50 (ERs): 920 nM | fold induction at 10 µM (ERs): 4.3
SMILES: COC(=O)CCC#C[C@]1(O)CC[C@H]2[C@@H]3CCc4cc(O)ccc4[C@H]3CC[C@@]21C [1a, 3,17β-Hydroxy-17α-(4′carbomethoxy-1′-butyn-1′-yl)estra-1,3,5-(10)-triene]

EC50 (ERs): 130 nM | fold induction at 10 µM (ERs): 2.5
SMILES: COC(=O)CCCC#C[C@]1(O)CC[C@H]2[C@@H]3CCc4cc(O)ccc4[C@H]3CC[C@@]21C [1g, 3,17β-Hydroxy-17α-(5′carbomethoxy-1′-butyn-1′-yl)estra-1,3,5-(10)-triene]

SMILES: CCOC(=O)CCCC#C[C@]1(O)CC[C@H]2[C@@H]3CCc4cc(O)ccc4[C@H]3CC[C@@]21C [1h]
activity on ERs (ERs): did not show any activity

SMILES: CCOC(=O)CCC#C[C@]1(O)CC[C@H]2[C@@H]3CCc4cc(O)ccc4[C@H]3CC[C@@]21C [1b, 3,17β-Hydroxy-17α-(4′carbethoxy-1′-butyn-1′-yl)estra-1,3,5-(10)-triene]
activity on ERs (ERs): did not show any activity

EC50 (ERs): 2300 nM | fold induction at 10 µM (ERs): 2.6
SMILES: CCCOC(=O)CCC#C[C@]1(O)CC[C@H]2[C@@H]3CCc4cc(O)ccc4[C@H]3CC[C@@]21C [1c, 3,17β-Hydroxy-17α-(4′carbopropoxy-1′-butyn-1′-yl)estra-1,3,5-(10)-triene]

SMILES: C[C@]12CC[C@@H]3c4ccc(O)cc4CC[C@H]3[C@@H]1CC[C@@H]2O [17β-estradiol, reference compound]
luciferase activity in whole body and body areas ([1]; 20 µg/kg s.c. around wound, ovx mice): induced a significant increase | increase of photon emission in the wound area with respect to vehicle-treated mice ([1]; 20 µg/kg s.c., 6 hours): 40% | uterus weight higher than average weight of controls (ERE-Luc mice): 35% | average uterus weight (ERE-Luc mice; n = 4): 22.8 mg | increase of photon emission from wound ([2]; 20 µg/kg s.c. around wound, 72 h versus time 0, ovx MITO-Luc): 78% | photon emission from the wound area ([2]; 20 µg/kg s.c., 48 hours after administration): significantly increased | wound area reduction (MITO-Luc mice [3]): 60% | number of macrophages (Iba1 positive) in the wound area lower than in controls (MITO-Luc mice [4]): 44% | Score of granulation tissue (fibrosis), histoscore mean (MITO-Luc mice [5]): 2

SMILES: C[C@]12CC[C@@H]3c4ccc(O)cc4CC[C@H]3[C@@H]1CC[C@@]2(O)C#CCCCO [6a]
activity on ERs (ERs): did not show any activity

SMILES: CCCCC(=O)OCCC#C[C@]1(O)CC[C@H]2[C@@H]3CCc4cc(O)ccc4[C@H]3CC[C@@]21C [2e]
in vivo healing and systemic activity [6]: substantially accelerated healing without systemic activity

SMILES: CCCCCOC(=O)CCC#C[C@]1(O)CC[C@H]2[C@@H]3CCc4cc(O)ccc4[C@H]3CC[C@@]21C [1f]
photon emission in body areas (whole body, thymus, hepatic area, abdomen, limbs, vagina) ([1]; 200 µg/kg s.c. around wound, 3 or 6 h, ovx mice): did not observe increased photon emission in any of the body areas | increase of photon emission in the wound area with respect to time 0 ([1]; 200 µg/kg s.c., 6 hours, trend): 20%

fold induction at 10 µM (ERs): 5
SMILES: CC(C)OC(=O)CCC#C[C@]1(O)CC[C@H]2[C@@H]3CCc4cc(O)ccc4[C@H]3CC[C@@]21C [1d, 3,17β-Hydroxy-17α-(4′carbo-iso-propoxy-1′-butyn-1′-yl)estra-1,3,5-(10)-triene]
